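Results reflect a 48-hour exposure of cells in 96-well plates to compound at five concentrations. TGI: concentration producing complete growth inhibition.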
What was measured:
Assay in all cases: NCI-60 cell line screen, 48 h
786-0 renal = test system: 786-0 renal
A498 renal = test system: A498 renal
A549 NSCLC = test system: A549 NSCLC
BT-549 breast = test system: BT-549 breast
CAKI-1 renal = test system: CAKI-1 renal
CCRF-CEM leukemia = test system: CCRF-CEM leukemia
COLO 205 colon = test system: COLO 205 colon
DU-145 prostate = test system: DU-145 prostate
EKVX NSCLC = test system: EKVX NSCLC
HCC-2998 colon = test system: HCC-2998 colon
HCT-116 colon = test system: HCT-116 colon
HCT-15 colon = test system: HCT-15 colon
HL-60(TB) leukemia = test system: HL-60(TB) leukemia
HOP-62 NSCLC = test system: HOP-62 NSCLC
HOP-92 NSCLC = test system: HOP-92 NSCLC
HS 578T breast = test system: HS 578T breast
HT29 colon = test system: HT29 colon
IGROV1 ovarian = test system: IGROV1 ovarian
KM12 colon = test system: KM12 colon
LOX IMVI melanoma = test system: LOX IMVI melanoma
M14 melanoma = test system: M14 melanoma
MALME-3M melanoma = test system: MALME-3M melanoma
MCF7 breast = test system: MCF7 breast
MDA-MB-231 breast = test system: MDA-MB-231 breast
MDA-MB-435 = test system: MDA-MB-435
MDA-N = test system: MDA-N
MOLT-4 leukemia = test system: MOLT-4 leukemia
NCI-H226 lung = test system: NCI-H226 lung
NCI-H23 lung = test system: NCI-H23 lung
NCI-H522 lung = test system: NCI-H522 lung
NCI/ADR-RES ovarian = test system: NCI/ADR-RES ovarian
OVCAR-3 ovarian = test system: OVCAR-3 ovarian
OVCAR-4 ovarian = test system: OVCAR-4 ovarian
OVCAR-5 ovarian = test system: OVCAR-5 ovarian
OVCAR-8 ovarian = test system: OVCAR-8 ovarian
PC-3 prostate = test system: PC-3 prostate
RPMI-8226 leukemia = test system: RPMI-8226 leukemia
RXF 393 renal = test system: RXF 393 renal
SF-268 CNS = test system: SF-268 CNS
SF-295 CNS = test system: SF-295 CNS
SF-539 CNS = test system: SF-539 CNS
SK-MEL-2 melanoma = test system: SK-MEL-2 melanoma
SK-MEL-28 melanoma = test system: SK-MEL-28 melanoma
SK-MEL-5 melanoma = test system: SK-MEL-5 melanoma
SK-OV-3 ovarian = test system: SK-OV-3 ovarian
SN12C renal = test system: SN12C renal
SNB-75 CNS = test system: SNB-75 CNS
SR leukemia = test system: SR leukemia
SW-620 colon = test system: SW-620 colon
T-47D breast = test system: T-47D breast
TK-10 renal = test system: TK-10 renal
U251 CNS = test system: U251 CNS
UACC-257 melanoma = test system: UACC-257 melanoma
UACC-62 melanoma = test system: UACC-62 melanoma
UO-31 renal = test system: UO-31 renal
ACHN renal = test system: ACHN renal
K-562 leukemia = test system: K-562 leukemia
NCI-H460 lung = test system: NCI-H460 lung
SNB-19 CNS = test system: SNB-19 CNS

CC(C)(C)O/N=C/c1cc(NC(=S)c2ccsc2)ccc1Cl
TGI (786-0 renal): 31.6 µM
TGI (A498 renal): 24.9 µM
TGI (A549 NSCLC): 63.8 µM
TGI (BT-549 breast): 27 µM
TGI (CAKI-1 renal): 30.2 µM
TGI (CCRF-CEM leukemia): 57.3 µM
TGI (COLO 205 colon): 28.3 µM
TGI (DU-145 prostate): 17.1 µM
TGI (EKVX NSCLC): 41.1 µM
TGI (HCC-2998 colon): 27.6 µM
TGI (HCT-116 colon): 26.5 µM
TGI (HCT-15 colon): 27.7 µM
TGI (HL-60(TB) leukemia): 39 µM
TGI (HOP-62 NSCLC): 29.4 µM
TGI (HOP-92 NSCLC): 37.7 µM
TGI (HS 578T breast): 57 µM
TGI (HT29 colon): 26.1 µM
TGI (IGROV1 ovarian): 34.9 µM
TGI (KM12 colon): 23.3 µM
TGI (LOX IMVI melanoma): 30.7 µM
TGI (M14 melanoma): 31.4 µM
TGI (MALME-3M melanoma): 31.5 µM
TGI (MCF7 breast): 24.8 µM
TGI (MDA-MB-231 breast): 32.1 µM
TGI (MDA-MB-435): 38.5 µM
TGI (MDA-N): 29.8 µM
TGI (MOLT-4 leukemia): 26.1 µM
TGI (NCI-H226 lung): 35.9 µM
TGI (NCI-H23 lung): 20.7 µM
TGI (NCI-H522 lung): 33.6 µM
TGI (NCI/ADR-RES ovarian): 33.9 µM
TGI (OVCAR-3 ovarian): 28.1 µM
TGI (OVCAR-4 ovarian): 28.7 µM
TGI (OVCAR-5 ovarian): 32.9 µM
TGI (OVCAR-8 ovarian): 29.7 µM
TGI (PC-3 prostate): 26.1 µM
TGI (RPMI-8226 leukemia): 12.2 µM
TGI (RXF 393 renal): 36.8 µM
TGI (SF-268 CNS): 38.2 µM
TGI (SF-295 CNS): 25.3 µM
TGI (SF-539 CNS): 37 µM
TGI (SK-MEL-2 melanoma): 29.5 µM
TGI (SK-MEL-28 melanoma): 39.2 µM
TGI (SK-MEL-5 melanoma): 16.9 µM
TGI (SK-OV-3 ovarian): 46.8 µM
TGI (SN12C renal): 32.2 µM
TGI (SNB-75 CNS): 77.4 µM
TGI (SR leukemia): 13.9 µM
TGI (SW-620 colon): 55.2 µM
TGI (T-47D breast): 16.1 µM
TGI (TK-10 renal): 26.6 µM
TGI (U251 CNS): 43.8 µM
TGI (UACC-257 melanoma): 25.2 µM
TGI (UACC-62 melanoma): 28.8 µM
TGI (UO-31 renal): 24.6 µM

O=C(Cc1nc2ccccc2[nH]c1=O)c1c[nH]c2ccccc12
TGI (786-0 renal): 29.3 µM
TGI (A498 renal): 51.9 µM
TGI (A549 NSCLC): > 100 µM
TGI (ACHN renal): 22.3 µM
TGI (BT-549 breast): 29.6 µM
TGI (CAKI-1 renal): 63.4 µM
TGI (CCRF-CEM leukemia): > 100 µM
TGI (COLO 205 colon): 28.9 µM
TGI (DU-145 prostate): > 100 µM
TGI (EKVX NSCLC): > 100 µM
TGI (HCC-2998 colon): 41.6 µM
TGI (HCT-116 colon): 56.2 µM
TGI (HCT-15 colon): > 100 µM
TGI (HL-60(TB) leukemia): > 100 µM
TGI (HOP-62 NSCLC): 68.2 µM
TGI (HOP-92 NSCLC): > 100 µM
TGI (HS 578T breast): > 100 µM
TGI (HT29 colon): 27.3 µM
TGI (IGROV1 ovarian): > 100 µM
TGI (K-562 leukemia): > 100 µM
TGI (KM12 colon): 58 µM
TGI (LOX IMVI melanoma): > 100 µM
TGI (M14 melanoma): > 100 µM
TGI (MALME-3M melanoma): > 100 µM
TGI (MCF7 breast): > 100 µM
TGI (MDA-MB-231 breast): 54.2 µM
TGI (MDA-MB-435): > 100 µM
TGI (MDA-N): > 100 µM
TGI (MOLT-4 leukemia): > 100 µM
TGI (NCI-H226 lung): 31.3 µM
TGI (NCI-H23 lung): > 100 µM
TGI (NCI-H460 lung): 32.4 µM
TGI (NCI-H522 lung): 50 µM
TGI (NCI/ADR-RES ovarian): 28.5 µM
TGI (OVCAR-3 ovarian): 68 µM
TGI (OVCAR-4 ovarian): 72.2 µM
TGI (OVCAR-5 ovarian): 57.1 µM
TGI (OVCAR-8 ovarian): 45.9 µM
TGI (PC-3 prostate): 31.3 µM
TGI (RPMI-8226 leukemia): > 100 µM
TGI (RXF 393 renal): 46.1 µM
TGI (SF-268 CNS): > 100 µM
TGI (SF-295 CNS): 35 µM
TGI (SF-539 CNS): 35.2 µM
TGI (SK-MEL-2 melanoma): 28.9 µM
TGI (SK-MEL-5 melanoma): 26.9 µM
TGI (SK-OV-3 ovarian): 47.6 µM
TGI (SN12C renal): 54.3 µM
TGI (SNB-19 CNS): > 100 µM
TGI (SNB-75 CNS): > 100 µM
TGI (SR leukemia): > 100 µM
TGI (SW-620 colon): > 100 µM
TGI (T-47D breast): 47.6 µM
TGI (TK-10 renal): 34.1 µM
TGI (U251 CNS): 33 µM
TGI (UACC-257 melanoma): > 100 µM
TGI (UACC-62 melanoma): 29 µM
TGI (UO-31 renal): 33.7 µM

Source: PubChem BioAssay (NCI)
